In article PMC5632727, “Boeravinone B, A Novel Dual Inhibitor of NorA Bacterial Efflux Pump of Staphylococcus aureus and Human P-Glycoprotein, Reduces the Biofilm Formation and Intracellular Invasion of Bacteria” (Frontiers in Microbiology, 2017):
Where two headings read alike, the source gives them in different places.

Assays:
Type in all cases: cell-based
[1] = target: T1, NorA multidrug efflux pump (Staphylococcus aureus, UniProt Q03325)
T1 construct: gene norA1199

[2] = target: T1, NorA multidrug efflux pump; test: ethidium bromide efflux and accumulation in NorA-overexpressing SA-1199B cells; no effect in norA knockout SA-K1758
[3] = target: T1, NorA multidrug efflux pump; test: fluorescent efflux and accumulation in NorA-overexpressing, wild-type and knockout S. aureus cells

T1 sequence (Q03325 entry or part of it): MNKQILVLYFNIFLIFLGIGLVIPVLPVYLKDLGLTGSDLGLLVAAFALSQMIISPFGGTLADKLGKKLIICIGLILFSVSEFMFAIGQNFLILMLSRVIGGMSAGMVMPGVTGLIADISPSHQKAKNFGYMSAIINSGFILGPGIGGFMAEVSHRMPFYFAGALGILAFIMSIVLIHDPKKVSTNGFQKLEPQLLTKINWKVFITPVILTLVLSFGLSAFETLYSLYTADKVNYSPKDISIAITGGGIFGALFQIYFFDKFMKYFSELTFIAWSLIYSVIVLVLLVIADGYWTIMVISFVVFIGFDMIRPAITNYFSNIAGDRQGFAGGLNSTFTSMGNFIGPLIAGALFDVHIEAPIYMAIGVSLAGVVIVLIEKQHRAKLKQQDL

COC(=O)[C@H]1[C@H]2C[C@@H]3c4[nH]c5cc(OC)ccc5c4CCN3C[C@H]2C[C@@H](OC(=O)c2cc(OC)c(OC)c(OC)c2)[C@@H]1OC [reserpine]
ethidium bromide efflux and accumulation in NorA-overexpressing SA-1199B cells; [1]: Reserpine, a known efflux pump inhibitor, was used as the positive control in both studies.

Cc1c(O)cc2oc3c(c(=O)c2c1O)-c1ccccc1OC3O (stereo not drawn) [boeravinone B, 6,9,11-trihydroxy-10-methylchromeno[3,4-b]chromen-12(6H)-one]
ethidium bromide efflux and accumulation in NorA-overexpressing SA-1199B cells; [2]: in cells treated with boeravinone B, the efflux of ethidium bromide was prevented, resulting in the prolonged retention of fluorescence

CC[n+]1c(-c2ccccc2)c2cc(N)ccc2c2ccc(N)cc21 [ethidium bromide]
fluorescent efflux and accumulation in NorA-overexpressing, wild-type and knocko [3]: a rapid decrease occurred in the fluorescence because of the NorA-mediated efflux of ethidium bromide
